{
  "source": "paper PMC12052742",
  "about": "“Engineering a newly identified alcohol dehydrogenase from Sphingobium Sp. for efficient utilization of nicotinamide cofactors biomimetics” (Bioresources and Bioprocessing, 2025)",
  "key": {"[1]": {"tested_on": "SpADH2", "assay": "Preliminary evaluation of NCB usage in oxidation of syringyl alcohol (HPLC)", "type": "biochemical, Sphingobium sp. SYK-6", "details": "preliminary assay: 1a 1 mM, NCB 10 mM, pH 7.0, 30℃, 0.1 mg/mL enzyme, 1 h", "method": "Sphingobium sp. SYK-6 belongs to genus Sphingomonas, and a search in UniProtKB identified 19 ADHs from this strain, including 5 PQQ-dependent and the remaining NAD^+/NADP^+-dependent enzymes. Two sequences annotated as aryl-alcohol dehydrogenases (SLG_34580 and SLG_24930) (Table. S1) were selected for heterologous expression (Fig. S1) and named SpADH1 and SpADH2, respectively. Their ability to utilize NCBs was assessed by oxidation of syringyl alcohol (1a) to produce syringaldehyde (1b) (Fig. 1a).\nFig. 1 (a) Reaction scheme of SpADH2-catalyzed oxidation of syringyl alcohol. (b) Specific activity of SpADH2 toward four NCBs. The evaluation of NCBs usage by SpADH2 was carried out under following conditions: 50 mM PBS buffer (pH 7.0) and 30℃, with 1a (1 mM) as substrate and 4 typical NCBs (10 mM) as cofactor. A total of 0.1 mg/mL enzyme was added to a 200 µL reaction mixture, and was analyzed by HPLC after 1 h reaction\nReaction samples were analyzed using Agilent 1260 Infinity II LC system under reversed phase condition. Column: Agilent C18 column. Analytical conditions for 1a and 1b: mobile phase: 50% water: 50% acetonitrile. The retention time for standard product 1b was 3.27 min, under flow rate of 1 mL·min^− 1and temperature of 30°C (Fig. S4)."}, "[2]": {"tested_on": "SpADH2 variants (H43L, A290I, H43L/A290I)", "assay": "Cofactor spectrum (HPLC specific activity), all variants together", "type": "biochemical, Sphingobium sp. SYK-6", "details": "1a 5 mM, cofactor 7.5 mM, pH 7.5, 30℃", "method": "Fig. 8 Cofactor spectrums of SpADH2 and its variants. The darkness of color for each cofactor stands for the activity. For each cofactor cube, top left: WT, top right: H43L, bottom left: A290I, bottom right: H43L/A290I. (a) Natural cofactors and NMN^+ are shown in purple. (b) tsNCBs are shown in cyan. The evaluation of cofactor spectrum was carried out under following conditions: 50 mM PBS buffer (pH 7.5) and 30℃, with 1a (5 mM) as substrate and different cofactors (7.5 mM) as cofactor. For NAD(P)^+ and NMN^+, 0.05 µg enzyme was added, and for tsNCBs, 5 µg enzyme was added. The results were analyzed by HPLC after 1 h reaction\nSpecific activity of SpADH2 in cofactor spectrum study was determined by HPLC analysis. PBS (pH 7.5) buffer was pre-heated at 30°C for 15 min. For NAD(P)^+ and NMN^+, 0.05 µg SpADH2 was added to PBS buffer (100 µL). For tsNCBs, 5 µg SpADH2 was added. A final concentration of 7.5 mM cofactor was added to the reaction mixture. Finally, a final concentration of 5 mM substrate was added to start the reaction. The reactions were conducted at 30°C.\nOne unit of enzyme activity is defined as the amount of enzyme required to form 1 µmol 1b per minute at pH 7.5 and 30°C. Same reaction without cofactor was used as a blank control."}},
  "data": [
    {"smiles": "NC(=O)c1ccc[n+](Cc2ccc(C(=O)O)cc2)c1", "note": "[p-BANA^+, para-3-carbamoyl-1-(4-carboxybenzyl)pyridin-1-ium]", "values": [
      {"measurement": "catalytic activity of SpADH2 with the NCB as cofactor", "setting": "[1]", "value": 1.62, "unit": "U/g"},
      {"measurement": "catalytic activity of all variants with the cofactor (in words)", "setting": "[2]", "value": "highest activity"}
    ]}
  ]
}
